The source of these data is US20210128566A1, “NOVEL FUNCTIONALIZED PURINE-2,6-DIONES AND THEIR USE IN MEDICINE” (THOMAS HELLEDAYS STIFTELSE FÖR MEDICINSK FORSKNING, priority 2017, published 2021).

Each structure is given as a SMILES string.

The first test addresses recombinant human NUDT5 (Homo sapiens, UniProt Q9UKK9). Nature of the test: NUDT5 inhibitor activity by malachite green reporter assay. The format is biochemical. The settings on record: Table 3; 6 nM NUDT5, 50 μM ADP-Ribose, 15 minutes at room temperature. In short, it runs like this: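 Coupled ADP-ribose hydrolysis in 10 mM Tris-acetate pH 8.0, 40 mM NaCl, 10 mM Mg acetate, 0.005% Tween-20, 1 mM DTT: 6 nM NUDT5, 50 μM ADP-Ribose, 10 U/ml alkaline phosphatase, 15 min at room temperature. Pi read by malachite green at 630 nm; compounds 100 μM–1.7 nM, 3-fold; IC50 by curve fit.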
Background: A reporter such as luciferase makes a cellular process visible.
For the molecule `C[C@H]1CN(c2nc3c(c(=O)n(C)c(=O)n3C)n2Cc2nnc(-c3ccc(Cl)c(Cl)c3)o2)CCN1` [Example 46, 7-{[5-(3,4-dichlorophenyl)-1,3,4-oxadiazol-2-yl]methyl}-1,3-dimethyl-8-[(3S)-3-methylpiperazin-1-yl]-2,3,6,7-tetrahydro-1H-purine-2,6-dione], the IC50 (as a rule, the concentration that inhibits the measured activity by half) is 12 nM.

With `Cc1cccc(-c2nnc(Cn3c(N4CCN(c5ccccc5)CC4)nc4c3c(=O)n(C)c(=O)n4C)o2)c1` [Example 58, 1,3-dimethyl-7-{[5-(3-methylphenyl)-1,3,4-oxadiazol-2-yl]methyl}-8-(4-phenylpiperazin-1-yl)-2,3,6,7-tetrahydro-1H-purine-2,6-dione], the IC50 is greater than 1000 nM.

Take `Cn1c(=O)c2c(nc(N3CCN(C(=O)OC(C)(C)C)CC3)n2Cc2nnc(-c3ccc(Cl)c(Cl)c3)o2)n(C)c1=O` [Example 14, tert-butyl 4-(7-{[5-(3,4-dichlorophenyl)-1,3,4-oxadiazol-2-yl]methyl}-1,3-dimethyl-2,6-dioxo-2,3,6,7-tetrahydro-1H-purin-8-yl)piperazine-1-carboxylate]: the IC50 turned out to be 164 nM.

As to `Cn1c(=O)c2c(nc(N3CCC(N)C3)n2Cc2nnc(-c3ccc(Cl)c(Cl)c3)o2)n(C)c1=O` (stereo not drawn) [Example 25, 8-(3-aminopyrrolidin-1-yl)-7-{[5-(3,4-dichlorophenyl)-1,3,4-oxadiazol-2-yl]methyl}-1,3-dimethyl-2,3,6,7-tetrahydro-1H-purine-2,6-dione], the IC50 was 30 nM.

`CC(=O)N1CCN(c2nc3c(c(=O)n(C)c(=O)n3C)n2Cc2nnc(-c3ccc(Cl)c(Cl)c3)o2)CC1` [Example 32, 8-(4-acetylpiperazin-1-yl)-7-{[5-(3,4-dichlorophenyl)-1,3,4-oxadiazol-2-yl]methyl}-1,3-dimethyl-2,3,6,7-tetrahydro-1H-purine-2,6-dione]: the IC50 stood at 76.7 nM.

For `Cn1c(=O)c2c(nc(N3CCCNCC3)n2Cc2nnc(-c3ccc(Cl)c(Cl)c3)o2)n(C)c1=O` [Example 27, 8-(1,4-diazepan-1-yl)-7-{[5-(3,4-dichlorophenyl)-1,3,4-oxadiazol-2-yl]methyl}-1,3-dimethyl-2,3,6,7-tetrahydro-1H-purine-2,6-dione], the IC50 amounted to 19.3 nM.

As for `Cc1cccc(-c2nnc(Cn3c(N4CCN(C)CC4)nc4c3c(=O)n(C)c(=O)n4C)o2)c1` [Example 51, 1,3-dimethyl-7-{[5-(3-methylphenyl)-1,3,4-oxadiazol-2-yl]methyl}-8-(4-methylpiperazin-1-yl)-2,3,6,7-tetrahydro-1H-purine-2,6-dione], the IC50 amounted to 31.3 nM.

On to `CCSc1nc2c(c(=O)n(C)c(=O)n2C)n1Cc1nnc(-c2ccc(Cl)c(Cl)c2)o1` [Example 6, 7-{[5-(3,4-dichlorophenyl)-1,3,4-oxadiazol-2-yl]methyl}-8-(ethylsulfanyl)-1,3-dimethyl-2,3,6,7-tetrahydro-1H-purine-2,6-dione], for which the IC50 was found to be 36.9 nM.

Regarding `CN(C)C1CCN(c2nc3c(c(=O)n(C)c(=O)n3C)n2Cc2nnc(-c3ccc(Cl)c(Cl)c3)o2)CC1` [Example 45, 7-{[5-(3,4-dichlorophenyl)-1,3,4-oxadiazol-2-yl]methyl}-8-[4-(dimethylamino)piperidin-1-yl]-1,3-dimethyl-2,3,6,7-tetrahydro-1H-purine-2,6-dione], the IC50 is 14.9 nM.

For the molecule `CCCCN1CCN(c2nc3c(c(=O)n(C)c(=O)n3C)n2Cc2nnc(-c3cccc(C)c3)o2)CC1` [Example 54, 8-(4-butylpiperazin-1-yl)-1,3-dimethyl-7-{[5-(3-methylphenyl)-1,3,4-oxadiazol-2-yl]methyl}-2,3,6,7-tetrahydro-1H-purine-2,6-dione], the IC50 was greater than 1000 nM.

The test is the same for the next values; noted with them: Table 4; 6 nM NUDT5, 50 μM ADP-Ribose, 15 minutes at room temperature.
On to `Cc1cc(-c2nnc(Cn3c(N4CCNCC4)nc4c3c(=O)n(C)c(=O)n4C)o2)ccc1Cl` [Example 116, 7-{[5-(4-chloro-3-methylphenyl)-1,3,4-oxadiazol-2-yl]methyl}-1,3-dimethyl-8-(piperazin-1-yl)-2,3,6,7-tetrahydro-1H-purine-2,6-dione], for which the IC50 worked out at 21.6 nM.

Consider `COc1cc(-c2nnc(Cn3c(SCCNC(=O)OC(C)(C)C)nc4c3c(=O)n(C)c(=O)n4C)o2)ccc1C` [Example 140, tert-butyl N-{2-[(7-{[5-(3-methoxy-4-methylphenyl)-1,3,4-oxadiazol-2-yl]methyl}-1,3-dimethyl-2,6-dioxo-2,3,6,7-tetrahydro-1H-purin-8-yl)sulfanyl]ethyl}carbamate], for which the IC50 worked out at 262 nM.

Regarding `COc1cc(-c2nnc(Cn3c(N4CCNCC4)nc4c3c(=O)n(C)c(=O)n4C)o2)ccc1C` [Example 119, 7-{[5-(3-methoxy-4-methylphenyl)-1,3,4-oxadiazol-2-yl]methyl}-1,3-dimethyl-8-(piperazin-1-yl)-2,3,6,7-tetrahydro-1H-purine-2,6-dione], the IC50 was 35.7 nM.

Take `COc1cc(-c2nnc(Cn3c(NCC4CCN(C(=N)N)CC4)nc4c3c(=O)n(C)c(=O)n4C)o2)ccc1C` [Example 128, 4-{[(7-{[5-(3-methoxy-4-methylphenyl)-1,3,4-oxadiazol-2-yl]methyl}-1,3-dimethyl-2,6-dioxo-2,3,6,7-tetrahydro-1H-purin-8-yl)amino]methyl}piperidine-1-carboximidamide]: the IC50 was determined as 128 nM.

On to `COc1cc(-c2nnc(Cn3c(SCCNC(C)=O)nc4c3c(=O)n(C)c(=O)n4C)o2)ccc1C` [Example 141, N-{2-[(7-{[5-(3-methoxy-4-methylphenyl)-1,3,4-oxadiazol-2-yl]methyl}-1,3-dimethyl-2,6-dioxo-2,3,6,7-tetrahydro-1H-purin-8-yl)sulfanyl]ethyl}acetamide], for which the IC50 was 306 nM.

For the molecule `COc1ccc(-c2nnc(Cn3c(N4CCNCC4)nc4c3c(=O)n(C)c(=O)n4C)o2)cc1` [Example 74, 7-{[5-(4-methoxyphenyl)-1,3,4-oxadiazol-2-yl]methyl}-1,3-dimethyl-8-(piperazin-1-yl)-2,3,6,7-tetrahydro-1H-purine-2,6-dione], the IC50 is 198 nM.

Regarding `Cc1ccc(-c2nnc(Cn3c(Cl)nc4c3c(=O)n(C)c(=O)n4C)o2)cn1` [Example 106, 8-chloro-1,3-dimethyl-7-{[5-(6-methylpyridin-3-yl)-1,3,4-oxadiazol-2-yl]methyl}-2,3,6,7-tetrahydro-1H-purine-2,6-dione], the IC50 is 2920 nM.

Regarding `Cn1c(=O)c2c(nc(Cl)n2Cc2nnc(-c3ccc(Cl)cc3)o2)n(C)c1=O` [Example 89, 8-chloro-7-{[5-(4-chlorophenyl)-1,3,4-oxadiazol-2-yl]methyl}-1,3-dimethyl-2,3,6,7-tetrahydro-1H-purine-2,6-dione], the IC50 is 620 nM.

For `Cn1c(=O)c2c(nc(N3CCN(C(=O)OC(C)(C)C)CC3)n2Cc2nnc(-c3ccc([N+](=O)[O-])cc3)o2)n(C)c1=O` [Example 100, tert-butyl 4-(1,3-dimethyl-7-{[5-(4-nitrophenyl)-1,3,4-oxadiazol-2-yl]methyl}-2,6-dioxo-2,3,6,7-tetrahydro-1H-purin-8-yl)piperazine-1-carboxylate], the IC50 turned out to be 9440 nM.

`Cn1c(=O)c2c(nc(N3CCNCC3)n2Cc2nnc(-c3ccccc3)o2)n(C)c1=O` [Example 107, 1,3-dimethyl-7-[(5-phenyl-1,3,4-oxadiazol-2-yl)methyl]-8-(piperazin-1-yl)-2,3,6,7-tetrahydro-1H-purine-2,6-dione]: the IC50 came out at 212 nM.

Turning to `Cn1c(=O)c2c(nc(Cl)n2Cc2nnc(-c3ccc(F)cc3)o2)n(C)c1=O` [Example 90, 8-chloro-7-{[5-(4-fluorophenyl)-1,3,4-oxadiazol-2-yl]methyl}-1,3-dimethyl-2,3,6,7-tetrahydro-1H-purine-2,6-dione], the IC50 worked out at 4390 nM.

For `COc1cc(-c2nnc(Cn3c(Cl)nc4c3c(=O)n(C)c(=O)n4C)o2)ccc1Cl` [Example 98, 8-chloro-7-{[5-(4-chloro-3-methoxyphenyl)-1,3,4-oxadiazol-2-yl]methyl}-1,3-dimethyl-2,3,6,7-tetrahydro-1H-purine-2,6-dione], the IC50 was 378 nM.

Turning to `Cn1c(=O)c2c(nc(N3CCNCC3)n2Cc2nnc(-c3ccc4[nH]ncc4c3)o2)n(C)c1=O` [Example 124, 7-{[5-(1H-indazol-5-yl)-1,3,4-oxadiazol-2-yl]methyl}-1,3-dimethyl-8-(piperazin-1-yl)-2,3,6,7-tetrahydro-1H-purine-2,6-dione], the IC50 was determined as 309 nM.

Regarding `Cn1c(=O)c2c(nc(N3CCN(CCNC(=O)OC(C)(C)C)CC3)n2Cc2nnc(-c3ccc(Cl)c(Cl)c3)o2)n(C)c1=O` [Example 64, tert-butyl N-{2-[4-(7-{[5-(3,4-dichlorophenyl)-1,3,4-oxadiazol-2-yl]methyl}-1,3-dimethyl-2,6-dioxo-2,3,6,7-tetrahydro-1H-purin-8-yl)piperazin-1-yl]ethyl}carbamate], the IC50 came out at 226 nM.

For `Cn1c(=O)c2c(nc(Cl)n2Cc2cn(-c3ccc(Cl)c(Cl)c3)nn2)n(C)c1=O` [Example 143, 8-chloro-7-{[1-(3,4-dichlorophenyl)-1H-1,2,3-triazol-4-yl]methyl}-1,3-dimethyl-2,3,6,7-tetrahydro-1H-purine-2,6-dione], the IC50 turned out to be 14000 nM.

With `COc1ccc(-c2nnc(Cn3c(N4CCNCC4)nc4c3c(=O)n(C)c(=O)n4C)o2)cc1OC` [Example 123, 7-{[5-(3,4-dimethoxyphenyl)-1,3,4-oxadiazol-2-yl]methyl}-1,3-dimethyl-8-(piperazin-1-yl)-2,3,6,7-tetrahydro-1H-purine-2,6-dione], the IC50 came to 169 nM.

Turning to `Cn1c(=O)c2c(nc(Cl)n2Cc2coc(-c3ccc(Cl)c(Cl)c3)n2)n(C)c1=O` [Example 71, 8-chloro-7-{[2-(3,4-dichlorophenyl)-1,3-oxazol-4-yl]methyl}-1,3-dimethyl-2,3,6,7-tetrahydro-1H-purine-2,6-dione], the IC50 came to 81.6 nM.
